US20220409593A1 (ARKUDA THERAPEUTICS, priority 2019, published 2022)
One block for each compound: values may come before it.

How the values were obtained:
[1] = tested on: mouse BV2 cells; assay: secretion of progranulin from mouse BV2 cells; format: cell-based
Excerpt: The compounds disclosed herein (e.g., compounds of Formula I, II, IIa, IIb, III, and as shown in Tables A and B) can increase the amount of progranulin or granulin in a subject. In some cases, the compounds increase the amount of progranulin in a subject. In some cases, the compounds increase the amount of granulin in a subject. In some cases, the compounds affect cells to increase secretion of progranulin. Solifenacin is a drug currently used for urinary incontinence. […] As such, the compounds disclosed herein, (e.g., compounds of Formula I, II, IIa, IIb, III, and as shown in Tables A and B) can be useful in treating disorders associated with aberrant (e.g., reduced) progranulin secretion or activity.

[2] = tested on: secreted mouse PGRN; assay: progranulin induction cellular assay (PGRN assay, ELISA-based readout); conditions: Mus musculus, progranulin secreted into cell culture medium, cells named in method: mouse primary microglia, primary cortical neurons, BV-2
Experimental: Cellular Assays: To measure the efficacy of compounds, a progranulin induction cellular assay in mouse primary microglia (pMG), primary cortical neurons, and BV-2 cell lines is used. BV-2 cells are split the day before plating into a 96well plate format at approximately 80%. Cells should be plated the day before and allowed for 1 hour attachment period and for 16 hour incubation. Levels of progranulin secreted into the cell culture medium or retained in the cell lysate can be quantified using an ELISA-based readout and measurement of secreted mouse PGRN in the medium was assessed by the methodology published by Ghidoni et al. 2012. Standard ELISA kits to measure PGRN are available from vendors such as Adipogen, R&D, and Biovendor.
Table D below presents the results of a PGRN assay as described above.

EC50 [2]: 4280 nM
Compound: CN1CCC[C@@]2(CN=C(N3CCc4ccccc4[C@@H]3c3cc(F)c(F)c(F)c3)O2)C1 (single isomer, unassigned) [Compound 3003]

EC50 [2]: 206 nM
Compound: NC[C@H]1C[C@]2(CN=C(N3CCc4ccccc4[C@@H]3c3ccc(F)cc3)O2)C1 (single isomer, unassigned) [Compound 3161]

EC50 [2]: 6390 nM
Compound: CN1CCC[C@]2(CN=C(N3CCc4ccccc4[C@@H]3c3cc(F)cc(F)c3)O2)C1 (single isomer, unassigned) [Compound 3010]

EC50 [2]: 5080 nM
Compound: CN1CCC[C@]2(CN=C(N3CCc4ccccc4[C@@H]3c3cc(F)c(F)c(F)c3)O2)C1 (single isomer, unassigned) [Compound 3002]

EC50 [2]: 440 nM
Compound: Fc1ccc([C@H]2c3ccccc3CCN2C2=NC[C@]3(CCCNC3)O2)cc1 [Compound 3052]

EC50 [2]: > 10000 nM
Compound: CN1CCC[C@]2(CN=C(N3CCc4ccccc4[C@H]3c3cc(F)cc(F)c3)O2)C1 (single isomer, unassigned) [Compound 3012]

EC50 [2]: 4020 nM
Compound: CN1CCC[C@]2(CN=C(N3CCc4ccccc4[C@@H]3c3ccc(F)c(F)c3)O2)C1 (stereo in doubt) [Compound 3029]

EC50 [2]: 1680 nM
Compound: CN1CCC[C@]2(CN=C(N3CCc4ccccc4[C@@H]3c3ccc(F)cc3F)O2)C1 (single isomer, unassigned) [Compound 3014]

EC50 [2]: 119 nM
Compound: N[C@@H]1CC[C@@]2(CN=C(N3CCc4ccccc4[C@@H]3c3ccc(F)cc3)O2)C1 (single isomer, unassigned) [Compound 3081]

The next lines start with the compound.

Compound: O=C(O[C@H]1CN2CCC1CC2)N1CCc2ccccc2[C@@H]1c1ccccc1 [Solifenacin]
secretion of progranulin [1]: causes the secretion of progranulin

Compound: CN1CCC[C@H]([C@@H]2CN=C(N3CCc4ccccc4[C@@H]3c3ccc(F)cc3)O2)C1 (single isomer, unassigned) [Compound 3152]
EC50 [2]: 406 nM

Compound: Fc1ccc([C@H]2c3ccccc3CCN2C2=NC[C@@H](C3CCNCC3)O2)cc1 [Compound 3067]
EC50 [2]: 309 nM

Compound: O[C@H]1CNC[C@]12CN=C(N1CCc3ccccc3[C@@H]1c1ccc(F)cc1)O2 [Compound 3177, (5S,9S)-2-((S)-1-(4-fluorophenyl)-3,4-dihydroisoquinolin-2(1H)-yl)-1-oxa-3,7-diazaspiro[4.4]non-2-en-9-ol]
EC50 [2]: 181 nM

Compound: Fc1ccc([C@H]2c3ccccc3CCN2C2=NC[C@@H](C3(F)CNC3)O2)cc1 (single isomer, unassigned) [Compound 3154]
EC50 [2]: 132 nM

Compound: Fc1ccc([C@H]2c3ccccc3CCN2C2=N[C@H](C3CCNCC3)CO2)cc1 (single isomer, unassigned) [Compound 3134]
EC50 [2]: 312 nM

Compound: N[C@H]1C[C@@]2(COC(N3CCc4ccccc4[C@@H]3c3ccc(F)cc3)=N2)C1 [Compound 3162]
EC50 [2]: 639 nM

Compound: Fc1cc(F)cc([C@@H]2c3ccccc3CCN2C2=NC[C@@]3(CN4CCC3CC4)O2)c1 (stereo in doubt) [Compound 3038]
EC50 [2]: 3910 nM

Compound: Fc1ccc([C@H]2c3ccccc3CCN2C2=NC[C@H](C3(F)CNC3)O2)cc1 (single isomer, unassigned) [Compound 3155]
EC50 [2]: 192 nM

Compound: Fc1cc(F)cc([C@H]2c3ccccc3CCN2C2=NC[C@@]3(CN4CCC3CC4)O2)c1 (racemic) [Compound 3036]
EC50 [2]: 3750 nM
